Reference: PubChem BioAssay (NCI)
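Growth conditions: 96-well plates. Treatment: test compound, 48 hours, 5 concentrations. Analysis: linear interpolation between bracketing concentrations; unreached endpoints set to highest concentration. Here, GI50 denotes the concentration required for 50% inhibition of growth. TGI denotes the concentration required for complete inhibition of growth.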

Experiments:
Assay in all cases: NCI tumour cell line growth inhibition, 48 h; in the data active = GI50 below about 0.43 µM; inactive = the rest
[1] = tested on: 786-0 renal
[2] = tested on: A549 NSCLC
[3] = tested on: CAKI-1 renal
[4] = tested on: CCRF-CEM leukemia
[5] = tested on: COLO 205 colon
[6] = tested on: DLD-1 colon
[7] = tested on: DMS 114 small cell lung
[8] = tested on: DMS 273 small cell lung
[9] = tested on: EKVX NSCLC
[10] = tested on: HCC-2998 colon
[11] = tested on: HCT-15 colon
[12] = tested on: HL-60(TB) leukemia
[13] = tested on: HOP-62 NSCLC
[14] = tested on: HT29 colon
[15] = tested on: IGROV1 ovarian
[16] = tested on: K-562 leukemia
[17] = tested on: KM12 colon
[18] = tested on: LOX IMVI melanoma
[19] = tested on: LXFL 529 NSCLC
[20] = tested on: M14 melanoma
[21] = tested on: M19-MEL melanoma
[22] = tested on: MALME-3M melanoma
[23] = tested on: MOLT-4 leukemia
[24] = tested on: NCI-H226 lung
[25] = tested on: NCI-H23 lung
[26] = tested on: OVCAR-3 ovarian
[27] = tested on: OVCAR-8 ovarian
[28] = tested on: RPMI-8226 leukemia
[29] = tested on: SF-268 CNS
[30] = tested on: SF-295 CNS
[31] = tested on: SF-539 CNS
[32] = tested on: SK-MEL-2 melanoma
[33] = tested on: SK-MEL-28 melanoma
[34] = tested on: SK-MEL-5 melanoma
[35] = tested on: SK-OV-3 ovarian
[36] = tested on: SN12C renal
[37] = tested on: SNB-19 CNS
[38] = tested on: SNB-75 CNS
[39] = tested on: SNB-78 CNS
[40] = tested on: SW-620 colon
[41] = tested on: TK-10 renal
[42] = tested on: UACC-257 melanoma
[43] = tested on: UACC-62 melanoma
[44] = tested on: UO-31 renal
[45] = tested on: A498 renal
[46] = tested on: ACHN renal
[47] = tested on: HCT-116 colon
[48] = tested on: HOP-18 NSCLC
[49] = tested on: HOP-92 NSCLC
[50] = tested on: KM20L2 colon
[51] = tested on: NCI-H460 lung
[52] = tested on: NCI-H522 lung
[53] = tested on: OVCAR-4 ovarian
[54] = tested on: OVCAR-5 ovarian
[55] = tested on: U251 CNS
[56] = tested on: RXF 393 renal
[57] = tested on: BT-549 breast
[58] = tested on: DU-145 prostate
[59] = tested on: HS 578T breast
[60] = tested on: MCF7 breast
[61] = tested on: MDA-MB-231 breast
[62] = tested on: MDA-MB-435
[63] = tested on: MDA-N
[64] = tested on: NCI/ADR-RES ovarian
[65] = tested on: PC-3 prostate
[66] = tested on: SR leukemia
[67] = tested on: T-47D breast

CC#CC(=O)Nc1ccccc1CC(c1c[nH]c2ccccc12)c1c[nH]c2ccccc12
49.6 µM: TGI [26]
29.9 µM: TGI [7] | TGI [33]
46.1 µM: TGI [39]
38.8 µM: TGI [25] | TGI [38]
43 µM: TGI [1]
58.9 µM: TGI [3]
53.6 µM: TGI [17]
38 µM: TGI [19]
32.7 µM: TGI [8] | TGI [10]
54.7 µM: TGI [9]
34.4 µM: TGI [32]
58.1 µM: TGI [28]
29.8 µM: TGI [34]
31.2 µM: TGI [21]
92.3 µM: TGI [41]
32.8 µM: TGI [11]
36.3 µM: TGI [6]
59 µM: TGI [29]
42.5 µM: TGI [14]
36.2 µM: TGI [40]
33.8 µM: TGI [18]
59.3 µM: TGI [35]
57.4 µM: TGI [42]
25.4 µM: TGI [44]
45.6 µM: TGI [37]
44.6 µM: TGI [23]
29.7 µM: TGI [5] | TGI [20]
58.3 µM: TGI [30]
37.2 µM: TGI [31]
39.4 µM: TGI [4]
32.6 µM: TGI [24]
76.7 µM: TGI [27]
35.9 µM: TGI [13]
28.3 µM: TGI [43]
39.2 µM: TGI [15] | TGI [16]
57.5 µM: TGI [2]
32.3 µM: TGI [22]
32.1 µM: TGI [12]
30 µM: TGI [36]

Cc1cccc(C(C)(C)C)c1NC(=O)CCc1n[nH]c(=S)o1
51.6 µM: TGI [28]
0.832 µM: TGI [24]
49 µM: TGI [11]
33.9 µM: TGI [47]
34.1 µM: TGI [40]
47.6 µM: TGI [5]
> 100 µM: TGI [1] | TGI [45] | TGI [2] | TGI [46] | TGI [3] | TGI [4] | TGI [6] | TGI [7] | TGI [8] | TGI [9] | TGI [10] | TGI [12] | TGI [48] | TGI [13] | TGI [49] | TGI [14] | TGI [15] | TGI [16] | TGI [17] | TGI [50] | TGI [19] | TGI [20] | TGI [21] | TGI [22] | TGI [23] | TGI [25] | TGI [51] | TGI [52] | TGI [26] | TGI [53] | TGI [54] | TGI [27] | TGI [29] | TGI [30] | TGI [31] | TGI [33] | TGI [34] | TGI [35] | TGI [36] | TGI [37] | TGI [38] | TGI [39] | TGI [41] | TGI [55] | TGI [42] | TGI [43] | TGI [44]

O=C(CSc1nnc(Cc2ccccc2)o1)Nc1cccc([N+](=O)[O-])c1
> 100 µM: TGI [1] | TGI [2] | TGI [46] | TGI [4] | TGI [5] | TGI [6] | TGI [7] | TGI [8] | TGI [10] | TGI [47] | TGI [11] | TGI [12] | TGI [48] | TGI [13] | TGI [14] | TGI [15] | TGI [16] | TGI [17] | TGI [50] | TGI [18] | TGI [19] | TGI [20] | TGI [21] | TGI [22] | TGI [23] | TGI [24] | TGI [25] | TGI [51] | TGI [52] | TGI [26] | TGI [53] | TGI [54] | TGI [27] | TGI [28] | TGI [56] | TGI [29] | TGI [30] | TGI [31] | TGI [32] | TGI [33] | TGI [34] | TGI [35] | TGI [36] | TGI [38] | TGI [39] | TGI [41] | TGI [55] | TGI [42] | TGI [43] | TGI [44]

CCOC(=O)/C(O)=C(/C=NC(=S)c1ccncc1)C(=O)OCC
> 100 µM: TGI [1] | TGI [45] | TGI [2] | TGI [46] | TGI [57] | TGI [3] | TGI [4] | TGI [5] | TGI [58] | TGI [9] | TGI [10] | TGI [47] | TGI [11] | TGI [12] | TGI [13] | TGI [49] | TGI [59] | TGI [14] | TGI [15] | TGI [16] | TGI [17] | TGI [18] | TGI [20] | TGI [22] | TGI [60] | TGI [61] | TGI [62] | TGI [63] | TGI [23] | TGI [24] | TGI [25] | TGI [51] | TGI [52] | TGI [64] | TGI [53] | TGI [54] | TGI [27] | TGI [65] | TGI [28] | TGI [56] | TGI [29] | TGI [30] | TGI [31] | TGI [32] | TGI [33] | TGI [34] | TGI [35] | TGI [36] | TGI [38] | TGI [66] | TGI [40] | TGI [67] | TGI [41] | TGI [55] | TGI [42] | TGI [43] | TGI [44]
> 28.8 µM: TGI [26]
97 µM: TGI [37]
inactive: GI50 [49] > 100 µM | GI50 [41] > 100 µM
